The source of these data is ChEMBL document CHEMBL2385071, “Synthesis and biological investigation of coumarin piperazine (piperidine) derivatives as potential multireceptor atypical antipsychotics” (J Med Chem, 2013).

Series [1] relates to Mus musculus. The series can be described thus: Toxicity in mouse assessed as weight gain at 0.3 to 2.7 mg/kg, po for 28 days. The series is classed as organism-based. More on the design: dose 0.3-2.7 mg/kg, route oral. Conditions: in vivo, 672 h.
Series [2] deals with T1, D(2) dopamine receptor (Homo sapiens, UniProt P14416). The series can be described thus: Antagonist activity at dopamine D2 receptor (unknown origin) expressed in CHOK1 cells coexpressing Galpha15 assessed as inhibition of agonist-induced response at 10 uM incubated for 60 mins in incubator followed by 15 mins at room temperature by FLIPR assay relative to control. The series is classed as cell-based. Conditions: CHO-K1.
T1 sequence (P14416 whole entry): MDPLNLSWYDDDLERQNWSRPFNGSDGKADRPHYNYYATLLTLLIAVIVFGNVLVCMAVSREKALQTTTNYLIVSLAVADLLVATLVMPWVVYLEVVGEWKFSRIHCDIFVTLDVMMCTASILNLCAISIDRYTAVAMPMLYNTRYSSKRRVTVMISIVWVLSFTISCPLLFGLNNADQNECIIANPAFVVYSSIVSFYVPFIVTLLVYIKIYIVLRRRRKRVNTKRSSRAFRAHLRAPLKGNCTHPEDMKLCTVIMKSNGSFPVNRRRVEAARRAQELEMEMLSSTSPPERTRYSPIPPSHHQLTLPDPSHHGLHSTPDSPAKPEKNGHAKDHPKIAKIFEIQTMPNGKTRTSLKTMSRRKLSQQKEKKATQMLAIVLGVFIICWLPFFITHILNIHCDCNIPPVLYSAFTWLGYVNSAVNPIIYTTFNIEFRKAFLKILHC

In series [3] the test system is Mus musculus. Description: Toxicity in po dosed mouse assessed as induction of catalepsy. The format is organism-based. Conditions: in vivo.
The nature of series [4]: Half life in rat at 12 mg/kg, po by HPLC-MS analysis. The format is ADME, organism-based. More on the design: dose 12 mg/kg, route oral. Conditions: in vivo.
Series [5] addresses T2, 5-hydroxytryptamine receptor 1A (Homo sapiens) (UniProt P08908).
T2 sequence (whole entry): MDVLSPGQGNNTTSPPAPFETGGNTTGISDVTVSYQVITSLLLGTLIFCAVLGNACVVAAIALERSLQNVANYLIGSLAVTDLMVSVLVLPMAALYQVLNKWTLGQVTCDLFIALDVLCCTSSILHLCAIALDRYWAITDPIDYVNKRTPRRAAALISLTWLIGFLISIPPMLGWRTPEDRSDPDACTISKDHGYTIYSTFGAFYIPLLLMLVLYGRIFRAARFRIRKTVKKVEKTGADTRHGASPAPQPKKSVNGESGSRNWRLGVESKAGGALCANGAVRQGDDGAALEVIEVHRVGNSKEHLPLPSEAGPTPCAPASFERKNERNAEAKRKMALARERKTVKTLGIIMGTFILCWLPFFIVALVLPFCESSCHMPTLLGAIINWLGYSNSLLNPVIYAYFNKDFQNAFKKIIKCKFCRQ
The series can be described thus: Agonist activity at 5HT1A receptor (unknown origin) expressed in CHOK1 cells coexpressing Galpha15 at 10 uM by FLIPR assay relative to control. The series is classed as cell-based. Conditions: CHO-K1.

The test system of series [6] is Mus musculus. Description: Toxicity in mouse assessed as effect on serum prolactin level at 0.3 to 2.7 mg/kg, po for 28 days measured 180 mins after last treatment by enzyme immunoassay. The series is classed as organism-based. Set-up: dose 0.3-2.7 mg/kg, route oral. Conditions: in vivo, 3 h.
A further series deals with Rattus norvegicus. The series can be described thus: Antipsychotic activity in po dosed rat assessed as reduction in conditioned avoidance response after 60 mins. The format is functional.
Series [7] concerns the target T1, D(2) dopamine receptor.

The term inhibition denotes the relative decrease from the control value, in per cent. As a reminder, the ED50 is the dose that gives a 50% effect, or the effect in half of the subjects. As usually defined, the half-life is the time needed for the level to fall by half in the phase considered. As a reminder, the IC50 is the concentration that inhibits the measured activity by half. Regarding `Cc1cc(=O)oc2c(Cl)c(OCCCCN3CCC(c4noc5cc(F)ccc45)CC3)ccc12`, the Activity result in the series with Mus musculus [1] is “Non-toxic”; in series [5] it was 9.9%; in the series on Mus musculus [6] it was “Non-toxic”; with Rattus norvegicus, “Dose-dependent effect”. Besides, at D(2) dopamine receptor [2], the inhibition stood at 101%. Further, the figures for the ED50 in the series with Mus musculus [3] and in the series on Rattus norvegicus (1 h) were 70.85 mg/kg and 6.5 mg/kg, respectively. The compound also gave a half-life in series [4] of 6.7 h. The compound further had an IC50 at D(2) dopamine receptor [7] of 26.3 nM.
